Earlier results in patent US10166194B2, “Hydrocortisone controlled release formulation” (Diurnal Limited, priority 2012, dated 2019).

For C[C@]12CCC(=O)C=C1CC[C@@H]1[C@@H]2[C@@H](O)C[C@@]2(C)[C@H]1CC[C@]2(O)C(=O)CO [Hydrocortisone], the half-life is given as “ca. 3 hours”.
